Experimental findings from US20110091971A1, “Differentiation of Pluripotent Stem Cells” (priority 2008, published 2011) are described below.

Common to all, as to assay type: cell-based
In test [1] the test system is H1 or H9 human embryonic stem cells. Kind of test: Activin A bioassay: differentiation of human embryonic stem cells to definitive endoderm, cell number and SOX17 intensity by high content analysis (96-well, four days). Put shortly: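 Read-out was cell count and integrated SOX17 immunofluorescence by high-content imaging, with each well divided by the mean of the 100 ng/ml activin A control. Over the four-day culture, test samples were given in DMEM:F12 with 0.5% FCS plus 20 ng/ml Wnt3a for the first two days and in 2% FCS alone for the last two. Cells were H1 or H9 hESC clusters grown on Matrigel.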

Test [2] deals with Human Embryonic Stem Cells (H1 hESC line). Kind of test: FACS analysis of CXCR4 at conclusion of first step of step-wise differentiation (Example 12). The note with it: 100 ng/ml peptide, end of first step (three days), FIG. 23A, 23B. The procedure: (§1) Preparation of Cells for Assay: Stock Cultures of Human Embryonic Stem Cells (H1 hESC line) were maintained in an undifferentiated, pluripotent state on growth factor-reduced MATRIGEL™-coated dishes in MEF conditioned medium supplemented with bFGF (PeproTech; Cat #100-18B) with passage on average every, four days. Passage was performed by exposing cell cultures to a solution of 1 mg/ml collagenase (Invitrogen, Cat #17104-019) for five to seven minutes at 37° C. followed by rinsing the monolayer with MEF conditioned medium and gentle scraping to recover cell clusters. Clusters were centrifuged at low speed to collect a cell pellet and remove residual collagenase. Cell clusters were split at a 1:3 or 1:4 ratio for routine maintenance culture or a 1:1 ratio for immediate assay. All human ES cell lines were maintained at passage numbers less than 50 and routinely evaluated for normal karyotypic phenotype and for absence of mycoplasma contamination.
(§2) Cell clusters were evenly resuspended in MEF conditioned medium supplemented with 8 ng/ml bFGF and seeded onto growth factor-reduced MATRIGEL™-coated 24-well, black wall culture plates (Arctic White; Cat #AWLS-303012) in volumes of 0.5 ml/well. Daily feeding was conducted by aspirating spent culture medium from each well and replacing with an equal volume of fresh medium. Plates were maintained at 37° C., 5% CO2 throughout the duration of assay.
(§3) Assay: The assay was initiated by aspirating culture medium from each well and adding back an aliquot (0.5 ml) of test medium. Test conditions for the first step of differentiation were conducted over a three-day period, feeding daily by aspirating and replacing the medium from each well with fresh test medium. Concentrated supernatants of the ACTN peptides were evaluated for protein concentration using a DuoSet ELISA kit for human activin A (R&D Systems; Cat #DY338), as previously described in Example 11. On the first day of assay, ACTN peptides were diluted to a final concentration of 100 ng/ml in RPMI 1640 medium (Invitrogen; Cat #: 22400) with 2% Albumin Bovine Fraction V, Fatty Acid Free (FAF BSA) (MP Biomedicals, Inc; Cat #152401), 8 ng/ml bFGF, and 20 ng/ml Wnt3a (R&D Systems; Cat #1324-WN/CF) and then added to the assay wells. On the second and third day of assay, ACTN peptides were diluted into RPMI 1640 medium supplemented with 2% fatty acid free BSA and 8 ng/ml bFGF, without any Wnt3a and then added to the assay wells. A positive control sample included a commercial source of activin A (PeproTech; Cat #12 0-14) diluted in culture medium with growth factors as indicated. At the conclusion of three days culture, cells from some wells were harvested for analysis by flow cytometry to evaluate levels of CXCR4, a marker of definitive endoderm formation. […]
(In general: A flow cytometer gives signals particle by particle.)

The test system is the same in test [3]. Kind of test: High content analysis of cell number and SOX17 expression at end of first step of differentiation (Example 12). The note with it: 100 ng/ml peptide, FIG. 23C-F. The procedure: as §1, §2, §3

On to activin A [reference compound], for which, in test [1] (Wnt3a omitted from treatment on days 1 and 2), the SOX17 expression result is listed as “failed to produce measurable SOX17 expression”. In test [1] (commercial activin A (Peprotech), 20 ng/ml Wnt3a on days 1 and 2, four days), the “Optimal activin A effects for induction of SOX17 expression (concentration range)” value is 100 to 200 ng/mL. For the same substance, in test [1] (commercial activin A (Peprotech), two-fold dilution curve, 20 ng/ml Wnt3a on days 1 and 2, four days), the “EC50 for induction of SOX17 expression” value was 0.03 to 0.05 µg/mL. Moreover, the “CXCR4 expression (FACS)” value in test [2] is “equivalent and robust CXCR4 expression”. In test [3], the “cell number and SOX17 expression (high content analysis)” value is on record as “equivalent results”.
